How the values were obtained:
[1] = tested on: normal NK cells expanded with K562-aAPC; assay: drug sensitivity score (DSS) (DSS units); higher = more sensitive; extreme values may be limits of the assay; details: 72 h; IL-2 2.5 ng/mL
Experimental: (§1)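 Drug sensitivity and resistance testing on K562-aAPC-expanded normal NK cells: 5 concentrations (10-fold steps over a 10,000-fold range), 72 h at 37 °C, viability by CellTiter-Glo normalised to DMSO and benzethonium chloride controls; DSS from the fitted curve.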

KHYG-1 (IL-2 2.5 ng/mL) [2] = assay: as above; details: 72 h
[3] = tested on: normal primary NK cells, pool 1 (3 donors) (IL-2 2.5 ng/mL); assay: as above; details: 72 h
NK-YS (IL-2 2.5 ng/mL) [4] = assay: as above; details: 72 h
[5] = tested on: normal primary NK cells, pool 3 (3 donors) (IL-2 2.5 ng/mL); assay: as above; details: 72 h
[6] = tested on: normal primary NK cells, pool 1 (3 donors), resting (IL-2 0 ng/mL); assay: as above; details: 72 h
SNK-6 (IL-2 2.5 ng/mL) [7] = assay: as above; details: 72 h
NK-92 (IL-2 2.5 ng/mL) [8] = assay: as above; details: 72 h
DERL-7 (IL-2 2.5 ng/mL) [9] = assay: as above; details: 72 h
KAI3 (IL-2 2.5 ng/mL) [10] = assay: as above; details: 72 h
[11] = tested on: normal primary NK cells, pool 2 (3 donors) (IL-2 2.5 ng/mL); assay: as above; details: 72 h
NKL (IL-2 2.5 ng/mL) [12] = assay: as above; details: 72 h
IMC-1 (IL-2 20 ng/mL) [13] = assay: as above; details: 72 h
YT (IL-2 2.5 ng/mL) [14] = assay: as above; details: 72 h
KHYG-1 (IL-2 2.5 ng/mL) [15] = assay: percent inhibition of viability; higher = more inhibition; details: 72 h
[16] = tested on: normal primary NK cells, pool 1 (3 donors) (IL-2 2.5 ng/mL); assay: as above; details: 72 h
NK-YS (IL-2 2.5 ng/mL) [17] = assay: as above; details: 72 h
[18] = tested on: normal primary NK cells, pool 3 (3 donors) (IL-2 2.5 ng/mL); assay: as above; details: 72 h
[19] = tested on: normal primary NK cells, pool 1 (3 donors), resting (IL-2 0 ng/mL); assay: as above; details: 72 h
SNK-6 (IL-2 2.5 ng/mL) [20] = assay: as above; details: 72 h
NK-92 (IL-2 2.5 ng/mL) [21] = assay: as above; details: 72 h
DERL-7 (IL-2 2.5 ng/mL) [22] = assay: as above; details: 72 h
KAI3 (IL-2 2.5 ng/mL) [23] = assay: as above; details: 72 h
[24] = tested on: normal primary NK cells, pool 2 (3 donors) (IL-2 2.5 ng/mL); assay: as above; details: 72 h
NKL (IL-2 2.5 ng/mL) [25] = assay: as above; details: 72 h
IMC-1 (IL-2 20 ng/mL) [26] = assay: as above; details: 72 h
YT (IL-2 2.5 ng/mL) [27] = assay: as above; details: 72 h
[28] = tested on: normal NK cells expanded with K562-aAPC; assay: as above; details: 72 h, IL-2 2.5 ng/mL
Experimental: as §1

Cn1cc(-c2ccc3nnc(Sc4ccc5ncccc5c4)n3n2)cn1 [SGX-523] (max concentration tested 5000 nM)
Details	drug sensitivity score
DERL-7 (IL-2 2.5 ng/mL) [9]	0.58
IMC-1 (IL-2 20 ng/mL) [13]	0.89
KAI3 (IL-2 2.5 ng/mL) [10]	0
KHYG-1 (IL-2 2.5 ng/mL) [2]	0.89
NK-92 (IL-2 2.5 ng/mL) [8]	0
NK-YS (IL-2 2.5 ng/mL) [4]	0
NKL (IL-2 2.5 ng/mL) [12]	0
SNK-6 (IL-2 2.5 ng/mL) [7]	0
YT (IL-2 2.5 ng/mL) [14]	0
[1]	0.89
[3]	0
[5]	0.04
[6]	2.87
[11]	0.02

percent inhibition of viability [%]
Details	0.5 nM	5 nM	50 nM	500 nM	5000 nM
DERL-7 (IL-2 2.5 ng/mL) [22]	3.14	1.32	-1.44	5.03	14.4
IMC-1 (IL-2 20 ng/mL) [26]	-3.56	-0.25	-5.07	-2.74	-1.91
KAI3 (IL-2 2.5 ng/mL) [23]	-4.24	-1.01	0.45	4.1	9.78
KHYG-1 (IL-2 2.5 ng/mL) [15]	-5.57	-5.37	-9.26	-3.51	-7.2
NK-92 (IL-2 2.5 ng/mL) [21]	0.34	-0.3	-4.47	-3.94	1.25
NK-YS (IL-2 2.5 ng/mL) [17]	1.09	-7.03	-6.25	-1.89	-5.01
NKL (IL-2 2.5 ng/mL) [25]	3.77	-3.27	-2.38	-4.59	3.26
SNK-6 (IL-2 2.5 ng/mL) [20]	3.69	0.4	-1.97	8.43	7.74
YT (IL-2 2.5 ng/mL) [27]	-2.71	-0.74	-1.93	1.35	-0.07
[16]	-8.19	-11.2	-7.5	-10.9	5.13
[18]	3.88	-2.63	1.81	1.46	11.1
[19]	-11.2	-4.96	17.1	10.2	32.6
[24]	1.04	-8.92	-3.62	-0.26	11.5
[28]	-2.93	-10.2	-5.18	-9.17	-2.25

CN1CCN(CCOc2cc(OC3CCOCC3)c3c(Nc4c(Cl)ccc5c4OCO5)ncnc3c2)CC1 [Saracatinib] (max concentration tested 10000 nM)
Details	drug sensitivity score
DERL-7 (IL-2 2.5 ng/mL) [9]	6.92
IMC-1 (IL-2 20 ng/mL) [13]	5.54
KAI3 (IL-2 2.5 ng/mL) [10]	4.31
KHYG-1 (IL-2 2.5 ng/mL) [2]	4.35
NK-92 (IL-2 2.5 ng/mL) [8]	6.22
NK-YS (IL-2 2.5 ng/mL) [4]	3.64
NKL (IL-2 2.5 ng/mL) [12]	2.2
SNK-6 (IL-2 2.5 ng/mL) [7]	0.27
YT (IL-2 2.5 ng/mL) [14]	7.37
[1]	6.3
[3]	2.04
[5]	0
[6]	7.66
[11]	0

percent inhibition of viability [%]
Details	1 nM	10 nM	100 nM	1000 nM	10000 nM
DERL-7 (IL-2 2.5 ng/mL) [22]	-0.15	1.98	7.09	17.7	74.7
IMC-1 (IL-2 20 ng/mL) [26]	-4.77	-2.25	-2.36	-0.89	100
KAI3 (IL-2 2.5 ng/mL) [23]	-1.92	-9.84	-6.46	7.42	56.8
KHYG-1 (IL-2 2.5 ng/mL) [15]	-5.13	-8	-4.22	0.25	77.8
NK-92 (IL-2 2.5 ng/mL) [21]	-2.32	4.14	9.55	18.4	68.4
NK-YS (IL-2 2.5 ng/mL) [17]	-1.8	-3.94	-0.18	5.62	51.1
NKL (IL-2 2.5 ng/mL) [25]	-14.8	-18.5	-9.99	-5.02	48.9
SNK-6 (IL-2 2.5 ng/mL) [20]	-3.28	-15.1	-18	-41.3	21.7
YT (IL-2 2.5 ng/mL) [27]	-2.96	-2.67	-0.94	26.4	68.2
[16]	-9.24	11.2	7.65	-4.55	45.9
[18]	-6.07	9.22	9.63	-17.2	0.69
[19]	-9.8	15.2	16.2	24	85.8
[24]	-0.71	-2.6	6.1	-10.6	9.82
[28]	-1.72	-3.19	2.46	6.91	94.3
